ChEMBL document CHEMBL1154288, “The discovery and unique pharmacological profile of RO4938581 and RO4882224 as potent and selective GABAA alpha5 inverse agonists for the treatment of cognitive dysfunction” (Bioorg Med Chem Lett, 2009)

These molecules were tested against GABA A receptor alpha-5/beta-3/gamma-2 (Rattus norvegicus) (UniProt P18508+P19969+P63079) (assay: Inverse agonist activity at rat GABA alpha-5-beta-3-gamma-2 receptor expressed in HEK293 cells by electrophysiology assay relative to GABA).
Assay type: functional, cell-based
`Clc1ccc2c(c1)-c1ncnn1Cc1c(C3CC3)ncn1-2` was tested, and the Efficacy was -21%. `Clc1ncn2c1Cn1ncnc1-c1ccccc1-2` showed an Efficacy of -41%. Molecule `Clc1ncn2c1Cn1ncnc1-c1cc(-c3ccccc3)ccc1-2` has an Efficacy of 8%. For `Clc1ncn2c1Cn1ncnc1-c1cc(NC3CC3)ccc1-2`, the Efficacy was -37%. Molecule `CC(=O)Nc1ccc2c(c1)-c1ncnn1Cc1c(Cl)ncn1-2` has an Efficacy of -34%. In the case of `C#CCNC(=O)c1ncn2c1Cn1ncnc1-c1cc(F)ccc1-2`, the Efficacy is reported as -35%. `Cc1ncn2c1Cn1ncnc1-c1cc(F)ccc1-2` was tested, and the Efficacy was -38%. For `Clc1ncn2c1Cn1ncnc1-c1cc(-n3ccnc3)ccc1-2`, the Efficacy was -7%. With `Clc1ncn2c1Cn1ncnc1-c1cc(C3CC3)ccc1-2` the Efficacy was -47%. `Cc1ncn2c1Cn1ncnc1-c1ccccc1-2` gave an Efficacy of -44%. Work on `Cc1cccc(-c2ncn3c2Cn2ncnc2-c2cc(Cl)ccc2-3)n1` yielded an Efficacy of -12%. Work on `N#Cc1ccc2c(c1)-c1ncnn1Cc1c(Cl)ncn1-2` yielded an Efficacy of -27%. With `Cc1ccc2c(c1)-c1ncnn1Cc1c(Cl)ncn1-2` the Efficacy was -37%. `CCS(=O)(=O)c1ncn2c1Cn1ncnc1-c1cc(Cl)ccc1-2` showed an Efficacy of -23%. Work on `Cc1ncn2c1Cn1ncnc1-c1cc(OC(F)(F)F)ccc1-2` yielded an Efficacy of -41%. For `Cc1nc(-c2ncn3c2Cn2ncnc2-c2cc(F)ccc2-3)no1`, the Efficacy was -12%. In the case of `CCC(F)(F)c1ncn2c1Cn1ncnc1-c1cc(F)ccc1-2`, the Efficacy is reported as -27%.

Each molecule was assayed on HEK293 (assay: Selectivity ratio of Ki for cloned human GABA alpha-1-beta-3-gamma-2 receptor expressed in HEK293 cells to Ki for cloned human GABA alpha-5-beta-3-gamma-2 receptor expressed in HEK293 cells).
Assay type: cell-based
With `Clc1ccc2c(c1)-c1ncnn1Cc1c(C3CC3)ncn1-2` the Ratio Ki was 6. In the case of `Clc1ncn2c1Cn1ncnc1-c1ccccc1-2`, the Ratio Ki is reported as 13. Work on `Clc1ncn2c1Cn1ncnc1-c1cc(-c3ccccc3)ccc1-2` yielded a Ratio Ki of 4. For `Clc1ncn2c1Cn1ncnc1-c1cc(NC3CC3)ccc1-2`, the Ratio Ki was 10. `CC(=O)Nc1ccc2c(c1)-c1ncnn1Cc1c(Cl)ncn1-2` was tested, and the Ratio Ki was 14. With `C#CCNC(=O)c1ncn2c1Cn1ncnc1-c1cc(F)ccc1-2` the Ratio Ki was 4. Work on `Cc1ncn2c1Cn1ncnc1-c1cc(F)ccc1-2` yielded a Ratio Ki of 6. Molecule `Clc1ncn2c1Cn1ncnc1-c1cc(-n3ccnc3)ccc1-2` has a Ratio Ki of 1. `Clc1ncn2c1Cn1ncnc1-c1cc(C3CC3)ccc1-2` gave a Ratio Ki of 23. With `Cc1ncn2c1Cn1ncnc1-c1ccccc1-2` the Ratio Ki was 16. In the case of `Cc1cccc(-c2ncn3c2Cn2ncnc2-c2cc(Cl)ccc2-3)n1`, the Ratio Ki is reported as 11. In the case of `N#Cc1ccc2c(c1)-c1ncnn1Cc1c(Cl)ncn1-2`, the Ratio Ki is reported as 15. `Cc1ccc2c(c1)-c1ncnn1Cc1c(Cl)ncn1-2` gave a Ratio Ki of 11. With `CCS(=O)(=O)c1ncn2c1Cn1ncnc1-c1cc(Cl)ccc1-2` the Ratio Ki was 4. `Cc1ncn2c1Cn1ncnc1-c1cc(OC(F)(F)F)ccc1-2` showed a Ratio Ki of 10. Molecule `Cc1nc(-c2ncn3c2Cn2ncnc2-c2cc(F)ccc2-3)no1` has a Ratio Ki of 3. Work on `CCC(F)(F)c1ncn2c1Cn1ncnc1-c1cc(F)ccc1-2` yielded a Ratio Ki of 5.

The molecules below were run on HEK293 (assay: Selectivity ratio of Ki for cloned human GABA alpha-2-beta-3-gamma-2 receptor expressed in HEK293 cells to Ki for cloned human GABA alpha-5-beta-3-gamma-2 receptor expressed in HEK293 cells).
Assay type: cell-based
In the case of `Clc1ccc2c(c1)-c1ncnn1Cc1c(C3CC3)ncn1-2`, the Ratio Ki is reported as 7. In the case of `Clc1ncn2c1Cn1ncnc1-c1ccccc1-2`, the Ratio Ki is reported as 5. `Clc1ncn2c1Cn1ncnc1-c1cc(-c3ccccc3)ccc1-2` showed a Ratio Ki of 5. `Clc1ncn2c1Cn1ncnc1-c1cc(NC3CC3)ccc1-2` gave a Ratio Ki of 43. Work on `CC(=O)Nc1ccc2c(c1)-c1ncnn1Cc1c(Cl)ncn1-2` yielded a Ratio Ki of 19. For `C#CCNC(=O)c1ncn2c1Cn1ncnc1-c1cc(F)ccc1-2`, the Ratio Ki was 1. In the case of `Cc1ncn2c1Cn1ncnc1-c1cc(F)ccc1-2`, the Ratio Ki is reported as 3. For `Clc1ncn2c1Cn1ncnc1-c1cc(-n3ccnc3)ccc1-2`, the Ratio Ki was 2. With `Clc1ncn2c1Cn1ncnc1-c1cc(C3CC3)ccc1-2` the Ratio Ki was 15. `Cc1ncn2c1Cn1ncnc1-c1ccccc1-2` was tested, and the Ratio Ki was 6. In the case of `Cc1cccc(-c2ncn3c2Cn2ncnc2-c2cc(Cl)ccc2-3)n1`, the Ratio Ki is reported as 11. In the case of `N#Cc1ccc2c(c1)-c1ncnn1Cc1c(Cl)ncn1-2`, the Ratio Ki is reported as 16. `Cc1ccc2c(c1)-c1ncnn1Cc1c(Cl)ncn1-2` gave a Ratio Ki of 23. Work on `CCS(=O)(=O)c1ncn2c1Cn1ncnc1-c1cc(Cl)ccc1-2` yielded a Ratio Ki of over 15. Work on `Cc1ncn2c1Cn1ncnc1-c1cc(OC(F)(F)F)ccc1-2` yielded a Ratio Ki of 29. `Cc1nc(-c2ncn3c2Cn2ncnc2-c2cc(F)ccc2-3)no1` was tested, and the Ratio Ki was 5. In the case of `CCC(F)(F)c1ncn2c1Cn1ncnc1-c1cc(F)ccc1-2`, the Ratio Ki is reported as 3.

These molecules were tested against T1, GABA-A receptor; alpha-5/beta-3/gamma-2 (Homo sapiens, UniProt P18507+P28472+P31644) (assay: Displacement of [3H]Flumazenil from cloned human GABA alpha-5-beta-3-gamma-2 receptor expressed in HEK293 cells).
T1 sequence (P18507 whole entry): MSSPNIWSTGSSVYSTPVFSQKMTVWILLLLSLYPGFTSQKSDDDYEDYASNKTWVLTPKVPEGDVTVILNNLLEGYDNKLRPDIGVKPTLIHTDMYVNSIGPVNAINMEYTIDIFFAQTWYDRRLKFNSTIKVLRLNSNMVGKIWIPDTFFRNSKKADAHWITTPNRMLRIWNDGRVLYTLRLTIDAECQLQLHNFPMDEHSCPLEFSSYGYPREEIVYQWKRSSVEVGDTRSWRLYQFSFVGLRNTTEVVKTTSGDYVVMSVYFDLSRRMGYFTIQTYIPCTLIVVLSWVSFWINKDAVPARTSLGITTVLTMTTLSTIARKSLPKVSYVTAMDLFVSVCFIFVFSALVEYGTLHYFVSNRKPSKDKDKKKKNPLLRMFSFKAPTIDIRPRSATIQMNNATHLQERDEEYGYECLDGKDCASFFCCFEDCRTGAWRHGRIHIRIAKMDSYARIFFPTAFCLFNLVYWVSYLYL
T1 sequence (P28472 whole entry): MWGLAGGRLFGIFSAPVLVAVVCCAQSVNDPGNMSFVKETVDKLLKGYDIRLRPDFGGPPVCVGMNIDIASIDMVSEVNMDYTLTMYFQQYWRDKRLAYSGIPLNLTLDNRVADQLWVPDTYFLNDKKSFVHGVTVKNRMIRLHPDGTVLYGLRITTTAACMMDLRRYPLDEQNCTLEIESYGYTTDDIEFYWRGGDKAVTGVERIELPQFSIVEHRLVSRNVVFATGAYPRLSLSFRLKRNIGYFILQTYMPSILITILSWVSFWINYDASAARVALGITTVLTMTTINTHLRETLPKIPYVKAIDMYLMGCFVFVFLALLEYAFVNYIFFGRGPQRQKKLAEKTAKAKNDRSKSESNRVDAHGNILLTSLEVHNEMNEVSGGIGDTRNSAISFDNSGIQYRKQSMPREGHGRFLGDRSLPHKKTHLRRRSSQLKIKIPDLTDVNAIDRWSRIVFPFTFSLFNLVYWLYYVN
T1 sequence (P31644 whole entry): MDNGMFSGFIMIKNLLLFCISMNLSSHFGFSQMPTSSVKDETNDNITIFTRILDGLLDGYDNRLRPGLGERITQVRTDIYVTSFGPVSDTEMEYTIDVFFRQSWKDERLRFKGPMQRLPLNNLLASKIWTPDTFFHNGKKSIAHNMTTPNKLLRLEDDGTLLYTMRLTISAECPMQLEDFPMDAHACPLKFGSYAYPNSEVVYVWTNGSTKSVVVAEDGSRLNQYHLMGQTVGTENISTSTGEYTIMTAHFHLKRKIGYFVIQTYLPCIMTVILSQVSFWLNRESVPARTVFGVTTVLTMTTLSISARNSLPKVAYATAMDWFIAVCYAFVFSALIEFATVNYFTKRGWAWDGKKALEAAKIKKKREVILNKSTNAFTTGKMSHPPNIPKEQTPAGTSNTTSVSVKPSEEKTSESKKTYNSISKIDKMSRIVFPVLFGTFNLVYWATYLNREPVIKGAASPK
Assay type: cell-based
`Clc1ccc2c(c1)-c1ncnn1Cc1c(C3CC3)ncn1-2` showed a Ki of 9.4 nM. For `Clc1ncn2c1Cn1ncnc1-c1ccccc1-2`, the Ki was 0.3 nM. Work on `Clc1ncn2c1Cn1ncnc1-c1cc(-c3ccccc3)ccc1-2` yielded a Ki of 6.3 nM. With `Clc1ncn2c1Cn1ncnc1-c1cc(NC3CC3)ccc1-2` the Ki was 2.2 nM. `CC(=O)Nc1ccc2c(c1)-c1ncnn1Cc1c(Cl)ncn1-2` was tested, and the Ki was 2.9 nM. `C#CCNC(=O)c1ncn2c1Cn1ncnc1-c1cc(F)ccc1-2` gave a Ki of 68 nM. Molecule `Cc1ncn2c1Cn1ncnc1-c1cc(F)ccc1-2` has a Ki of 3 nM. For `Clc1ncn2c1Cn1ncnc1-c1cc(-n3ccnc3)ccc1-2`, the Ki was 13 nM. `Clc1ncn2c1Cn1ncnc1-c1cc(C3CC3)ccc1-2` was tested, and the Ki was 1.2 nM. `Cc1ncn2c1Cn1ncnc1-c1ccccc1-2` gave a Ki of 2.6 nM. Molecule `Cc1cccc(-c2ncn3c2Cn2ncnc2-c2cc(Cl)ccc2-3)n1` has a Ki of 31 nM. `N#Cc1ccc2c(c1)-c1ncnn1Cc1c(Cl)ncn1-2` showed a Ki of 2.4 nM. For `Cc1ccc2c(c1)-c1ncnn1Cc1c(Cl)ncn1-2`, the Ki was 1.8 nM. For `CCS(=O)(=O)c1ncn2c1Cn1ncnc1-c1cc(Cl)ccc1-2`, the Ki was 215 nM. For `Cc1ncn2c1Cn1ncnc1-c1cc(OC(F)(F)F)ccc1-2`, the Ki was 50 nM. Molecule `Cc1nc(-c2ncn3c2Cn2ncnc2-c2cc(F)ccc2-3)no1` has a Ki of 0.2 nM. Work on `CCC(F)(F)c1ncn2c1Cn1ncnc1-c1cc(F)ccc1-2` yielded a Ki of 3.2 nM.

These molecules were tested on HEK293 (assay: Selectivity ratio of Ki for cloned human GABA alpha-3-beta-3-gamma-2 receptor expressed in HEK293 cells to Ki for cloned human GABA alpha-5-beta-3-gamma-2 receptor expressed in HEK293 cells).
Assay type: cell-based
`Clc1ccc2c(c1)-c1ncnn1Cc1c(C3CC3)ncn1-2` was tested, and the Ratio Ki was 5. In the case of `Clc1ncn2c1Cn1ncnc1-c1ccccc1-2`, the Ratio Ki is reported as 2. With `Clc1ncn2c1Cn1ncnc1-c1cc(-c3ccccc3)ccc1-2` the Ratio Ki was 8. `Clc1ncn2c1Cn1ncnc1-c1cc(NC3CC3)ccc1-2` showed a Ratio Ki of 36. `CC(=O)Nc1ccc2c(c1)-c1ncnn1Cc1c(Cl)ncn1-2` showed a Ratio Ki of 10. Molecule `C#CCNC(=O)c1ncn2c1Cn1ncnc1-c1cc(F)ccc1-2` has a Ratio Ki of 1. In the case of `Cc1ncn2c1Cn1ncnc1-c1cc(F)ccc1-2`, the Ratio Ki is reported as 4. Work on `Clc1ncn2c1Cn1ncnc1-c1cc(-n3ccnc3)ccc1-2` yielded a Ratio Ki of 1. `Clc1ncn2c1Cn1ncnc1-c1cc(C3CC3)ccc1-2` gave a Ratio Ki of 16. Molecule `Cc1ncn2c1Cn1ncnc1-c1ccccc1-2` has a Ratio Ki of 4. Work on `Cc1cccc(-c2ncn3c2Cn2ncnc2-c2cc(Cl)ccc2-3)n1` yielded a Ratio Ki of 8. Work on `N#Cc1ccc2c(c1)-c1ncnn1Cc1c(Cl)ncn1-2` yielded a Ratio Ki of 5. In the case of `Cc1ccc2c(c1)-c1ncnn1Cc1c(Cl)ncn1-2`, the Ratio Ki is reported as 12. For `CCS(=O)(=O)c1ncn2c1Cn1ncnc1-c1cc(Cl)ccc1-2`, the Ratio Ki was 4. Molecule `Cc1ncn2c1Cn1ncnc1-c1cc(OC(F)(F)F)ccc1-2` has a Ratio Ki of 24. `Cc1nc(-c2ncn3c2Cn2ncnc2-c2cc(F)ccc2-3)no1` was tested, and the Ratio Ki was 3. `CCC(F)(F)c1ncn2c1Cn1ncnc1-c1cc(F)ccc1-2` was tested, and the Ratio Ki was 2.
